Laboratory results published in ChEMBL document CHEMBL1201862, “PubChem BioAssay data set” (2004).
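These data come from cells grown in 96-well plates and exposed to compound for 48 hours at five concentrations. Abbreviation: GI50, concentration required for 50% inhibition of growth.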 Calls of active or inactive are those of the source. Rule as the data show it: active = GI50 up to about 1.1 µM and inactive = higher.

Assays:
Assay in all cases: NCI tumour cell line growth inhibition, 48 h
[1] = test system: HL-60
[2] = test system: SF-539
[3] = test system: UO-31
[4] = test system: SF-295
[5] = test system: MDA-MB-435
[6] = test system: MCF7
[7] = test system: LOX IMVI
[8] = test system: UACC-62
[9] = test system: SF-268
[10] = test system: BT-549
[11] = test system: A498
[12] = test system: PC-3
[13] = test system: Hs-578T
[14] = test system: IGROV-1
[15] = test system: DU-145
[16] = test system: HT-29
[17] = test system: HCT-15
[18] = test system: HCT-116
[19] = test system: RXF 393
[20] = test system: SK-MEL-28
[21] = test system: SK-MEL-2
[22] = test system: SNB-19
[23] = test system: NCI-H226
[24] = test system: OVCAR-5
[25] = test system: 786-0
[26] = test system: UACC-257
[27] = test system: COLO 205
[28] = test system: ACHN
[29] = test system: NCI/ADR-RES
[30] = test system: A549
[31] = test system: SR
[32] = test system: OVCAR-8
[33] = test system: NCI-H23
[34] = test system: MOLT-4
[35] = test system: EKVX
[36] = test system: Malme-3M
[37] = test system: NCI-H522
[38] = test system: NCI-H460
[39] = test system: HOP-62
[40] = test system: CCRF-CEM
[41] = test system: SN12C
[42] = test system: U-251
[43] = test system: T47D
[44] = test system: M14
[45] = test system: CAKI-1
[46] = test system: HOP-92
[47] = test system: OVCAR-3
[48] = test system: TK-10
[49] = test system: MDA-MB-231
[50] = test system: MDA-N
[51] = test system: SW-620
[52] = test system: KM12
[53] = test system: SK-MEL-5
[54] = test system: OVCAR-4
[55] = test system: SK-OV-3
[56] = test system: SNB-75
[57] = test system: RPMI-8226
[58] = test system: K562
[59] = test system: HCC 2998

With `Cc1ccc(S(=O)(=O)N2CCC(C(=O)O)(c3ccccc3)CC2)cc1` the GI50 [1] was > 100 µM (inactive), the GI50 [2] was > 100 µM (inactive) and the GI50 [3] was > 100 µM (inactive). For the same molecule, the GI50 [4] was > 100 µM (inactive), the GI50 [5] was > 100 µM (inactive) and the GI50 [6] was > 100 µM (inactive). The GI50 [7] was > 100 µM (inactive), the GI50 [8] was > 100 µM (inactive) and the GI50 [9] was > 100 µM (inactive). The GI50 [10] was > 100 µM (inactive), the GI50 [11] was > 100 µM (inactive) and the GI50 [12] was > 100 µM (inactive). The GI50 [13] was > 100 µM (inactive), the GI50 [14] was > 100 µM (inactive) and the GI50 [15] was > 100 µM (inactive). The GI50 [16] was > 100 µM (inactive), the GI50 [17] was over 100 µM and the GI50 [18] was > 100 µM (inactive). For the same molecule, the GI50 [19] was > 100 µM (inactive), the GI50 [20] was > 100 µM (inactive) and the GI50 [21] was > 100 µM (inactive). For the same molecule, the GI50 [22] was > 100 µM (inactive), the GI50 [23] was > 100 µM (inactive) and the GI50 [24] was > 100 µM (inactive). For the same molecule, the GI50 [25] was > 100 µM (inactive), the GI50 [26] was > 100 µM (inactive) and the GI50 [27] was > 100 µM (inactive). The GI50 [28] was > 100 µM (inactive), the GI50 [29] was > 100 µM (inactive) and the GI50 [30] was > 100 µM (inactive). For the same molecule, the GI50 [31] was > 100 µM (inactive), the GI50 [32] was > 100 µM (inactive) and the GI50 [33] was > 100 µM (inactive). For the same molecule, the GI50 [34] was > 100 µM (inactive), the GI50 [35] was > 100 µM (inactive) and the GI50 [36] was > 100 µM (inactive). The GI50 [37] was > 100 µM (inactive), the GI50 [38] was > 100 µM (inactive) and the GI50 [39] was > 100 µM (inactive). The GI50 [40] was > 100 µM (inactive), the GI50 [41] was > 100 µM (inactive) and the GI50 [42] was > 100 µM (inactive). The GI50 [43] was > 100 µM (inactive), the GI50 [44] was > 100 µM (inactive) and the GI50 [45] was > 100 µM (inactive). The GI50 [46] was > 100 µM (inactive), the GI50 [47] was > 100 µM (inactive) and the GI50 [48] was > 100 µM (inactive). The GI50 [49] was > 100 µM (inactive), the GI50 [50] was > 100 µM (inactive) and the GI50 [51] was > 100 µM (inactive). For the same molecule, the GI50 [52] was > 100 µM (inactive), the GI50 [53] was > 100 µM (inactive) and the GI50 [54] was > 100 µM (inactive). For the same molecule, the GI50 [55] was > 100 µM (inactive), the GI50 [56] was > 100 µM (inactive) and the GI50 [57] was > 100 µM (inactive). The GI50 [58] was > 100 µM (inactive).

For `Cc1ccc(/N=N/c2c(C)c(C#N)c(=S)n(C3OC(CO)C(O)C(O)C3O)c2C)cc1` (configuration not stated), the GI50 [1] was 59.6 µM (inactive), the GI50 [2] was 40.9 µM (inactive) and the GI50 [3] was 37.5 µM (inactive). The GI50 [4] was 36.3 µM (inactive), the GI50 [5] was 24.6 µM (inactive) and the GI50 [6] was 35.6 µM (inactive). The GI50 [7] was 18.2 µM (inactive), the GI50 [8] was 13.5 µM (inactive) and the GI50 [9] was 50.1 µM (inactive). For the same molecule, the GI50 [10] was 26.2 µM (inactive), the GI50 [12] was 28.2 µM (inactive) and the GI50 [13] was 17 µM (inactive). The GI50 [14] was 38.9 µM (inactive), the GI50 [15] was 53.1 µM (inactive) and the GI50 [16] was 30.9 µM (inactive). The GI50 [17] was 39 µM, the GI50 [18] was 25.8 µM (inactive) and the GI50 [19] was 26.1 µM (inactive). For the same molecule, the GI50 [20] was 22.1 µM (inactive), the GI50 [21] was 30.6 µM (inactive) and the GI50 [22] was 27.7 µM (inactive). For the same molecule, the GI50 [24] was 38.3 µM (inactive), the GI50 [25] was 28.4 µM (inactive) and the GI50 [26] was 63 µM (inactive). The GI50 [27] was 38.7 µM (inactive), the GI50 [28] was 34 µM (inactive) and the GI50 [29] was 30.5 µM (inactive). For the same molecule, the GI50 [30] was 40.6 µM (inactive), the GI50 [31] was 26 µM (inactive) and the GI50 [33] was 32.1 µM (inactive). The GI50 [34] was 12.9 µM (inactive), the GI50 [36] was 21.7 µM (inactive) and the GI50 [38] was 23.7 µM (inactive). The GI50 [39] was 34.3 µM (inactive), the GI50 [40] was 20 µM (inactive) and the GI50 [41] was 28.2 µM (inactive). For the same molecule, the GI50 [42] was 21.2 µM (inactive), the GI50 [43] was 23.3 µM (inactive) and the GI50 [44] was 20.4 µM (inactive). For the same molecule, the GI50 [45] was 37.2 µM (inactive), the GI50 [46] was 11.7 µM (inactive) and the GI50 [47] was 29.6 µM (inactive). For the same molecule, the GI50 [48] was 63.1 µM (inactive), the GI50 [49] was 24.4 µM (inactive) and the GI50 [50] was 36.4 µM (inactive). The GI50 [51] was 16 µM (inactive), the GI50 [52] was 41.1 µM (inactive) and the GI50 [53] was 17.4 µM (inactive). For the same molecule, the GI50 [59] was 21.7 µM (inactive), the GI50 [54] was 34.4 µM (inactive) and the GI50 [55] was 34.7 µM (inactive). For the same molecule, the GI50 [56] was 25.4 µM (inactive), the GI50 [57] was 46 µM (inactive) and the GI50 [58] was 18.4 µM (inactive).

With `CSc1c(C(=O)Nc2ccc(C)cc2)c(N)n(N)c(=O)c1C#N` the GI50 [1] was > 100 µM (inactive), the GI50 [2] was > 100 µM (inactive) and the GI50 [3] was 60.1 µM (inactive). The GI50 [5] was > 100 µM (inactive), the GI50 [6] was > 100 µM (inactive) and the GI50 [7] was > 100 µM (inactive). The GI50 [8] was > 100 µM (inactive), the GI50 [9] was > 100 µM (inactive) and the GI50 [10] was > 100 µM (inactive). The GI50 [11] was > 100 µM (inactive), the GI50 [12] was > 100 µM (inactive) and the GI50 [13] was > 100 µM (inactive). The GI50 [14] was > 100 µM (inactive), the GI50 [15] was > 100 µM (inactive) and the GI50 [16] was > 100 µM (inactive). The GI50 [17] was over 100 µM, the GI50 [18] was > 100 µM (inactive) and the GI50 [19] was > 100 µM (inactive). The GI50 [20] was > 100 µM (inactive), the GI50 [21] was > 100 µM (inactive) and the GI50 [22] was > 100 µM (inactive). For the same molecule, the GI50 [23] was > 100 µM (inactive), the GI50 [24] was > 100 µM (inactive) and the GI50 [25] was > 100 µM (inactive). The GI50 [26] was > 100 µM (inactive), the GI50 [27] was > 100 µM (inactive) and the GI50 [29] was > 100 µM (inactive). The GI50 [30] was > 100 µM (inactive), the GI50 [31] was > 100 µM (inactive) and the GI50 [32] was > 100 µM (inactive). For the same molecule, the GI50 [33] was > 100 µM (inactive), the GI50 [34] was > 100 µM (inactive) and the GI50 [35] was > 100 µM (inactive). For the same molecule, the GI50 [36] was > 100 µM (inactive), the GI50 [37] was > 100 µM (inactive) and the GI50 [38] was > 100 µM (inactive). For the same molecule, the GI50 [40] was > 100 µM (inactive), the GI50 [41] was > 100 µM (inactive) and the GI50 [42] was > 100 µM (inactive). For the same molecule, the GI50 [43] was > 100 µM (inactive), the GI50 [44] was > 100 µM (inactive) and the GI50 [45] was > 100 µM (inactive). For the same molecule, the GI50 [47] was > 100 µM (inactive), the GI50 [48] was > 100 µM (inactive) and the GI50 [49] was > 100 µM (inactive). For the same molecule, the GI50 [50] was > 100 µM (inactive), the GI50 [51] was > 100 µM (inactive) and the GI50 [52] was > 100 µM (inactive). The GI50 [53] was > 100 µM (inactive), the GI50 [59] was > 100 µM (inactive) and the GI50 [54] was > 100 µM (inactive). The GI50 [55] was > 100 µM (inactive), the GI50 [56] was > 100 µM (inactive) and the GI50 [57] was > 100 µM (inactive). The GI50 [58] was > 100 µM (inactive).
